From US20050026827A1, “Octapeptide bombesin analogs” (Societe de Conseils de Recherches et d'Applications …, priority 1987, published 2005)
“Also recorded” adds a separate entry of the source.

Columns and labels:
[1] = target: adenylate cyclase activity in rat anterior pituitary homogenates; details: Robberecht et al.; cited from earlier work
[2] = test system: rat anterior pituitary cells; assay: Growth hormone release from primary culture of rat anterior pituitary cells (agonist potency); format: cell-based; details: doses as high as 0.1 mM
Method: (§1) Phase 7—Inhibition of Growth Hormone Release
(§2) Anterior pituitaries from adult male rats, weighing 200-250 g and housed under controlled conditions (lights on from 0500-1900 h), were dispersed using aseptic technique by a previously described trypsin/DNase method (Heiman et al., Endocrinology, 1985, 116, 410) derived from other methods (Hoefer et al., Mol. Cell. Endocrinol., 1984, 35, 229).
(§3) The dispersed cells were diluted with sterile-filtered Dulbecco's modified Eagle medium (MEM) (Gibco Laboratories, Grand Island, N.Y. (GIBCO)), which was supplemented with fetal calf serum (2.5%; GIBCO), horse serum (3%; GIBCO), fresh rat serum (10% stored on ice for no longer than 1 h) from the pituitary donors, MEM nonessential amino acids (1%; GIBCO), gentamycin (10/mg/mL; Sigma) and nystatin (10,000 U/mL; GIBCO). The cells were counted with a hemacytometer (approximately 2,000,000 cells per pituitary) and randomly plated at a density of 200,000 per well (Co-star cluster 24; Rochester Scientific Co., Rochester, N.Y.). […]
(§4) Growth hormone (GH) in plasma and media was measured by a standard double antibody radioimmunoassay using components supplied by the NIDDK and the National Hormone and Pituitary Program, University of Maryland School of Medicine. […] Potencies and 95% confidence intervals were calculateds by 4-point assay (Pugsley, Endocrinology, 1946, 39, 161). […]

[3] = test system: rat anterior pituitary cells; format: cell-based; details: vs 1 nM GRF(1-29)NH2; read-out: IC50 (antagonist of GRF-stimulated GH secretion)
Method: as §1, §2, §3, §4

Compound | IC50 [1] [nM] | agonist activity in the potency assay (in words) [2] | IC50 [3] [µM]
[N-Ac-Tyr^1, D-Arg^2]GRF(1-29)NH2 | ~1000 |  | 
CC[C@H](C)[C@H](NC(=O)[C@H](C)NC(=O)[C@H](CC(=O)O)NC(=O)[C@H](C)NC(=O)[C@@H](N)Cc1ccc(O)cc1)C(=O)N[C@@H](Cc1ccccc1)C(=O)N[C@H](C(=O)N[C@@H](CC(N)=O)C(=O)N[C@@H](CO)CN[C@@H](Cc1ccc(O)cc1)C(=O)N[C@@H](CCCNC(=N)N)C(=O)N[C@@H](CCCCN)C(=O)N[C@H](C(=O)N[C@@H](CC(C)C)C(=O)NCC(=O)N[C@@H](CCC(N)=O)C(=O)N[C@@H](CC(C)C)C(=O)N[C@@H](CO)C(=O)N[C@@H](C)C(=O)N[C@@H](CCCNC(=N)N)C(=O)N[C@@H](CCCCN)C(=O)N[C@@H](CC(C)C)C(=O)N[C@@H](CC(C)C)C(=O)N[C@@H](CCC(N)=O)C(=O)N[C@@H](CC(=O)O)C(=O)N[C@H](C(=O)N[C@@H](CCSC)C(=O)N[C@@H](CO)C(=O)N[C@@H](CCCNC(=N)N)C(N)=O)[C@@H](C)CC)C(C)C)[C@@H](C)O [VIII, [Ser^9ψ[CH2NH]Tyr^10]-GRF(1-29)NH2] |  | inactive; also recorded: all trace of agonist activity was lost | ~10
